Tests used:
[1] = test system: pET3a control E. coli lysate; assay: Acyl-ACP hydrolysis by control E. coli lysate (unmodified pET3a); assay type: biochemical; details: 1 hour induction with 1mM IPTG
Procedure: (§1) To assay for C12 thioesterase activity the following mixture is incubated at 30° for 30 min: "buffer" comprising 7mM KH2PO4-KOH pH 8, 20% v/v glycerol, 1mM dithiothreitol (DTT), 0.1% v/v Triton X100; sample to be tested for activity in the same or similar buffer as the "extraction buffer" described in Example 2; and 5µl of ^14C-radiolabeled lauroyl-ACP substrate for a total volume of 100µl and final lauroyl-ACP concentration of 0.5µM. Lauroyl-ACP substrate is prepared according to the method of Rock et al (Methods in Enzymology (1981) 72:397-403), using ACP prepared from Escherichia coli by the method of Rock and Cronan (Methods in Enzymology (1981) 71:341-351). The laurate is radiolabeled in the carboxylate group at a specific radioactivity of 50-60µCi/µmol.
(§2) The reaction is stopped by adding 0.5ml cold (0°) 10% v/v acetic acid. The fatty acid product of the hydrolytic enzyme action is extracted away from the unhydrolyzed substrate by adding 1ml diethyl ether and mixing vigorously. After settling for a few minutes the upper ether layer is transferred to 5ml scintillation fluid for determination of radioactivity by liquid scintillation spectrometry. Additional ether extractions may be performed to recover remaining traces of the reaction product for more accurate quantitation of the enzyme activity if desired. The amount of ether-extracted radioactivity is a direct measure of C12-preferring acyl-ACP thioesterase activity, provided the amount of enzyme is not sufficient to hydrolyze more than about 25% of the substrate. With greater activity than this the relationship between radioactivity in the ether layer and the quantity of enzyme becomes markedly nonlinear. The enzyme preparation must then be diluted appropriately to bring the activity into the linear range of the assay.
A pET3a vector (Rosenberg, et al., Gene (1987) 56:125-135) is used in an E. coil strain BL21 (PE3) (Studier and Moffat, J. Mol. Biol. (1986) 189:113-130) host for this study. The pET3a vector contains a promoter and 33 bp of the 5' reading frame of bacteriophase T7. T7 polymerase is under the regulatory control of an isopropyl-b-D-thiogalactopyranoside (IPTG)-inducible lac UV5 promoter found in the E. coli BL21 (DE3) strain. Thus, by the addition of IPTG to E. coli BL21 (DE3) transformed with pET3a, the T7 promoter will be activated.
Constructs are prepared containing the truncated cDNA of Fig. 2 fused in reading frame by deletion of the BamHI/EcoRI fragment and replacement of the thioesterase sequence. E. coli are transformed with pET3a constructs containing the thioesterase (pET3a-THI0) and unmodified pET3a as a control. The E. coli are grown at 37°C in liquid medium and expression is induced by the addition of 1mM IPTG. […]

[2] = biological target: T1, Bay C12-preferring acyl-ACP thioesterase (Umbellularia californica, UniProt Q41635); assay: Bay thioesterase substrate specificity as a function of chain length, ammonium sulfate fraction; assay type: biochemical; set-up: The cotyledons from such seeds are dissected from the other seed parts and stored frozen at -70°; This comprises the source tissue for enzyme extraction; from tissue; host or cells: immature seed cotyledons of Umbellularia californica; details: C8-ACP activity set to 1.0; label is acyl chain length of the acyl-ACP
T1 sequence (Q41635 84-382): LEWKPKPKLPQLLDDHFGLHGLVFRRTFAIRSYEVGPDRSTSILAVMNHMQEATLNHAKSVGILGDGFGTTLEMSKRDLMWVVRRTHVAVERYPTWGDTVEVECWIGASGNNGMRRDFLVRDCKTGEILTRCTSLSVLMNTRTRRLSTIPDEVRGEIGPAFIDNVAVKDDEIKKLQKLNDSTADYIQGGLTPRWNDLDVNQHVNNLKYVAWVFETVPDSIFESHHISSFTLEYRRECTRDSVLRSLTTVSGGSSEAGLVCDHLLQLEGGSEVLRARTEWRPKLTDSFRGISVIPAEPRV
Procedure: as §1, with “and 5µl of ^14C-radiolabeled lauroyl-ACP substrate for a total volume of 100µl” left out
as §2
The crude extract is subjected to ammonium sulfate fractionation as follows. Sufficient solid ammonium sulfate is gradually added with stirring over 30 min to achieve 70% saturation. The preparation is then stirred for a further 30 min. After centrifuging as described above, the pelleted material is resuspended in extraction buffer (2ml/g original tissue weight) and stirred for 10 min until dissolved. Ammonium sulfate is then added as before, but this time only sufficient to achieve 50% saturation. After centrifuging as before, the supernatant fraction is discarded. The pelleted material, which contains the C12-preferring acyl-ACP thioesterase, may be frozen by immersion in liquid nitrogen and then stored at -70° at this stage if desired. The resulting material is referred to as the "ammonium sulfate fraction." Very little of the C12-preferring acyl-ACP thioesterase activity is lost if the pellet is frozen very rapidly. […]

Substance | Hydrolysis Activity (mean cpm in ether extract) [1] | Relative Thioesterase Activity [2]
14:0-ACP | 1271 cpm | 4.0
decanoyl-ACP [10:0-ACP] | 787 cpm | 2.7
16:0-ACP | 2848 cpm | 4.7
lauroyl-ACP [12:0-ACP] | 1028 cpm | 24.0
